Experimental data as given in patent US20090082203A1, “INSECTICIDAL BIS(SUBSTITUTED PHENYL)-1-{[4-(SATURATED HETEROCYCLYL-SUBSTITUTED)PHENYLMETHYL]- (4-PIPERIDYL)}METHANE DERIVATIVES” (priority 2004, published 2009).

Tested on: tobacco budworm (Heliothis virescens [Fabricius])
Experiment: surface-treated diet test against tobacco budworm
Assay type: in vivo
Details: for Percent Growth Inhibition: inhibition of insect weight relative to untreated controls
Protocol: Candidate insecticides were evaluated for activity against the tobacco budworm (Heliothis virescens [Fabricius]) in a surface-treated diet test.
In this test one mL of molten (65-70° C.) wheat germ-based artificial diet was pipetted into each well of a four by six (24 well) multi-well plate (ID# 430345-15.5 mm dia.×17.6 mm deep; Corning Costar Corp., One Alewife Center, Cambridge, Mass. 02140). The diet was allowed to cool to ambient temperature before treatment with candidate insecticide.
For a determination of insecticidal activity, solutions of the candidate insecticides were prepared for testing using a Packard 204DT Multiprobe® Robotic System (Packard Instrument Company, 800 Research Parkway, Meriden, Conn. 06450), in which the robot first diluted a standard 50 millimolar DMSO solution of candidate insecticide with a 1:1 water/acetone solution (V/V) in a ratio of 1:7 stock solution to water/acetone. The robot subsequently pipetted 40 microliters of the so-prepared solution onto the surface of the diet in each of three wells in the 24 multi-well plate. The process was repeated with solutions of seven other candidate insecticides. Once treated, the contents of the multi-well plate were allowed to dry, leaving 0.25 millimoles of candidate insecticide on the surface of the diet, or a concentration of 0.25 millimolar. Appropriate untreated controls containing only DMSO on the diet surface were also included in this test.
For evaluations of the insecticidal activity of a candidate insecticide at varying rates of application, the test was established as described above using sub-multiples of the standard 50 millimolar DMSO solution of candidate insecticide. For example, the standard 50 millimolar solution was diluted by the robot with DMSO to give 5, 0.5, 0.05, 0.005, 0.0005 millimolar, or more dilute solutions of the candidate insecticide. In these evaluations there were six replicates of each rate of application placed on the surface of the diet in the 24 multi-well plate, for a total of four rates of application of candidate insecticide in each plate.
In each well of the test plate was placed one second instar tobacco budworm larvae, each weighing approximately five milligrams. After the larvae were placed in each well, the plate was sealed with clear polyfilm adhesive tape. The tape over each well was perforated to ensure an adequate air supply. The plates were then held in a growth chamber at 25° C. and 60% relative humidity for five days (light 14 hours/day).
After the five-day exposure period insecticidal activity for each rate of application of candidate insecticide was assessed as percent inhibition of insect weight relative to the weight of insects from untreated controls, and percent mortality when compared to the total number of insects infested.
The test compounds of formula I are identified by numbers that correspond to those in Table 1.

[1] = 0.25 millimolar on the surface of the diet, second instar larvae, five-day exposure, compared to the total number of insects infested
[2] = 0.25 millimolar on the surface of the diet, second instar larvae, five-day exposure

## CC1(C)CCOC(c2ccc(C[N+]3([O-])CCC(C(O)(c4ccc(OC(F)(F)F)cc4)c4ccc(OC(F)(F)F)cc4)CC3)cc2)O1 (stereo not drawn) [Compound 70]
[1]
  Percent Mortality: 100%
[2]
  Percent Growth Inhibition: 100%

## OC(c1ccc(OC(F)(F)F)cc1)(c1ccc(OC(F)(F)F)cc1)C1CCN(Cc2ccc(C3OCC4(CC4)CO3)cc2)CC1 [Compound 45]
[1]
  Percent Mortality: 100%
[2]
  Percent Growth Inhibition: 100%

## [O-][N+]1(Cc2ccc(C3OCCO3)c(C(F)(F)F)c2)CCC(C(O)(c2ccc(OC(F)(F)F)cc2)c2ccc(OC(F)(F)F)cc2)CC1 (stereo not drawn) [Compound 182]
[1]
  Percent Mortality: 100%
[2]
  Percent Growth Inhibition: 100%

## [O-][N+]1(Cc2ccc(C3O[C@H]4CCCC[C@H]4O3)cc2)CCC(C(O)(c2ccc(OC(F)(F)F)cc2)c2ccc(OC(F)(F)F)cc2)CC1 (stereo partly drawn) [Compound 117]
[1]
  Percent Mortality: 100%
[2]
  Percent Growth Inhibition: 100%

## OC(c1ccc(OC(F)(F)F)cc1)(c1ccc(OC(F)(F)F)cc1)C1CCN(Cc2ccc(C3COCO3)cc2)CC1 (stereo not drawn) [Compound 103]
[1]
  Percent Mortality: 100%
[2]
  Percent Growth Inhibition: 100%

## CC1(c2ccc(CN3CCC(C(O)(c4ccc(OC(F)(F)F)cc4)c4ccc(OC(F)(F)F)cc4)CC3)cc2)OCCCO1 [Compound 11]
[1]
  Percent Mortality: 100%
[2]
  Percent Growth Inhibition: 100%

## [O-][N+]1(Cc2ccc(C3OCCO3)c(Cl)c2)CCC(C(O)(c2ccc(OC(F)(F)F)cc2)c2ccc(OC(F)(F)F)cc2)CC1 (stereo not drawn) [Compound 181]
[1]
  Percent Mortality: 100%
[2]
  Percent Growth Inhibition: 100%

## CC1COC(c2ccc(C[N+]3([O-])CCC(C(O)(c4ccc(OC(F)(F)F)cc4)c4ccc(OC(F)(F)F)cc4)CC3)cc2F)O1 (stereo not drawn) [Compound 180]
[1]
  Percent Mortality: 100%
[2]
  Percent Growth Inhibition: 100%

## COC(=O)N1CCSC1c1ccc(CN2CCC(C(O)(c3ccc(OC(F)(F)F)cc3)c3ccc(OC(F)(F)F)cc3)CC2)cc1 (stereo not drawn) [Compound 89]
[1]
  Percent Mortality: 100%
[2]
  Percent Growth Inhibition: 100%

## CC1COC(COc2ccc(CN3CCC(C(O)(c4ccc(OC(F)(F)F)cc4)c4ccc(OC(F)(F)F)cc4)CC3)cc2)O1 (stereo not drawn) [Compound 193]
[1]
  Percent Mortality: 100%
[2]
  Percent Growth Inhibition: 100%

## CCCCN1CCOC1c1ccc(CN2CCC(C(O)(c3ccc(OC(F)(F)F)cc3)c3ccc(OC(F)(F)F)cc3)CC2)cc1 (stereo not drawn) [Compound 98]
[1]
  Percent Mortality: 100%
[2]
  Percent Growth Inhibition: 100%

## OC(c1ccc(OC(F)(F)F)cc1)(c1ccc(OC(F)(F)F)cc1)C1CCN(Cc2ccc(C3OCC(CN4CCCC4)O3)cc2)CC1 (stereo not drawn) [Compound 108]
[1]
  Percent Mortality: 33%
[2]
  Percent Growth Inhibition: 97%

## OC(c1ccc(OC(F)(F)F)cc1)(c1ccc(OC(F)(F)F)cc1)C1CCN(Cc2ccc(C3(c4cccc(Cl)c4)OCCO3)cc2)CC1 [Compound 85]
[1]
  Percent Mortality: 100%
[2]
  Percent Growth Inhibition: 100%

## C[C@H]1OC(c2ccc(C[N+]3([O-])CCC(C(O)(c4ccc(OC(F)(F)F)cc4)c4ccc(OC(F)(F)F)cc4)CC3)cc2)O[C@@H]1C (relative stereo) [Compound 124]
[1]
  Percent Mortality: 100%
[2]
  Percent Growth Inhibition: 100%

## CC1COC(c2ccc(CN3CCC(C(O)(c4ccc(Cl)c(Cl)c4)c4ccc(Cl)c(Cl)c4)CC3)cc2)O1 (stereo not drawn) [Compound 176]
[1]
  Percent Mortality: 100%
[2]
  Percent Growth Inhibition: 100%

## [O-][N+]1(Cc2ccc(C3OCCC(c4ccccc4)O3)cc2)CCC(C(O)(c2ccc(OC(F)(F)F)cc2)c2ccc(OC(F)(F)F)cc2)CC1 (stereo not drawn) [Compound 79]
[1]
  Percent Mortality: 100%
[2]
  Percent Growth Inhibition: 100%

## CC(C)(C)C1COC(c2ccc(CN3CCC(C(O)(c4ccc(OC(F)(F)F)cc4)c4ccc(OC(F)(F)F)cc4)CC3)cc2)O1 (stereo not drawn) [Compound 50]
[1]
  Percent Mortality: 100%
[2]
  Percent Growth Inhibition: 100%

## C=CC1COC(c2ccc(CN3CCC(C(O)(c4ccc(OC(F)(F)F)cc4)c4ccc(OC(F)(F)F)cc4)CC3)cc2)O1 (stereo not drawn) [Compound 52]
[1]
  Percent Mortality: 100%
[2]
  Percent Growth Inhibition: 100%

## OC(c1ccc(OC(F)(F)F)cc1)(c1ccc(OC(F)(F)F)cc1)C1CCN(Cc2ccc(C3O[C@H]4CCCC[C@H]4O3)cc2)CC1 (stereo partly drawn) [Compound 115]
[1]
  Percent Mortality: 100%
[2]
  Percent Growth Inhibition: 100%

## OC(c1ccc(OC(F)(F)F)cc1)(c1ccc(OC(F)(F)F)cc1)C1CCN(Cc2ccc(C3OCC=CCO3)cc2)CC1 [Compound 58]
[1]
  Percent Mortality: 100%
[2]
  Percent Growth Inhibition: 100%

## CC(=O)N1CCSC1c1ccc(CN2CCC(C(O)(c3ccc(OC(F)(F)F)cc3)c3ccc(OC(F)(F)F)cc3)CC2)cc1 (stereo not drawn) [Compound 71]
[1]
  Percent Mortality: 33%
[2]
  Percent Growth Inhibition: 100%

## CC1(C)OCC(COc2ccc(CN3CCC(C(O)(c4ccc(OC(F)(F)F)cc4)c4ccc(OC(F)(F)F)cc4)CC3)cc2)O1 (stereo not drawn) [Compound 189, bis[4-(trifluoromethoxy)-phenyl][1-({4-[(2,2-dimethyl(1,3-dioxolan-4-yl))methoxy]phenyl}methyl)(4-piperidyl)]methan-1-ol]
[1]
  Percent Mortality: 100%
[2]
  Percent Growth Inhibition: 100%

## [O-][N+]1(Cc2ccc(C3(COc4ccccc4)OCCO3)cc2)CCC(C(O)(c2ccc(OC(F)(F)F)cc2)c2ccc(OC(F)(F)F)cc2)CC1 (stereo not drawn) [Compound 67]
[1]
  Percent Mortality: 100%
[2]
  Percent Growth Inhibition: 100%

## OC(c1ccc(OC(F)(F)F)cc1)(c1ccc(OC(F)(F)F)cc1)C1CCN(Cc2ccc(OCC3(c4ccccc4)OCCO3)cc2)CC1 [Compound 186]
[1]
  Percent Mortality: 100%
[2]
  Percent Growth Inhibition: 100%

## C=CCOCC1COC(c2ccc(C[N+]3([O-])CCC(C(O)(c4ccc(OC(F)(F)F)cc4)c4ccc(OC(F)(F)F)cc4)CC3)cc2)O1 (stereo not drawn) [Compound 93]
[1]
  Percent Mortality: 100%
[2]
  Percent Growth Inhibition: 100%

## O=C(NCC1COC(c2ccc(CN3CCC(C(O)(c4ccc(OC(F)(F)F)cc4)c4ccc(OC(F)(F)F)cc4)CC3)cc2)O1)OCc1ccccc1 (stereo not drawn) [Compound 95]
[1]
  Percent Mortality: 100%
[2]
  Percent Growth Inhibition: 100%

## CCC1COC(COc2ccc(CN3CCC(C(O)(c4ccc(OC(F)(F)F)cc4)c4ccc(OC(F)(F)F)cc4)CC3)cc2)O1 (stereo not drawn) [Compound 196]
[1]
  Percent Mortality: 100%
[2]
  Percent Growth Inhibition: 100%

## OC(c1ccc(OC(F)(F)F)cc1)(c1ccc(OC(F)(F)F)cc1)C1CCN(Cc2ccc(C3OCC(c4ccccc4)O3)cc2)CC1 (stereo not drawn) [Compound 53]
[1]
  Percent Mortality: 100%
[2]
  Percent Growth Inhibition: 100%

## CN(C)C(=O)N1CCSC1c1ccc(CN2CCC(C(O)(c3ccc(OC(F)(F)F)cc3)c3ccc(OC(F)(F)F)cc3)CC2)cc1 (stereo not drawn) [Compound 73]
[1]
  Percent Mortality: 100%
[2]
  Percent Growth Inhibition: 100%

## [O-][N+]1(Cc2ccc(C3OCCO3)cc2)CCC(C(O)(c2ccc(OC(F)(F)F)cc2)c2ccc(OC(F)(F)F)cc2)CC1 (stereo not drawn) [Compound 2]
[2]
  Percent Growth Inhibition: 100%
In vivo
  Percent Mortality: 100%

## [O-][N+]1(Cc2ccc(C3COCO3)cc2)CCC(C(O)(c2ccc(OC(F)(F)F)cc2)c2ccc(OC(F)(F)F)cc2)CC1 (stereo not drawn) [Compound 104]
[1]
  Percent Mortality: 100%
[2]
  Percent Growth Inhibition: 100%

## CCCC1COC(c2ccc(CN3CCC(C(O)(c4ccc(OC(F)(F)F)cc4)c4ccc(OC(F)(F)F)cc4)CC3)cc2)O1 (stereo not drawn) [Compound 72]
[1]
  Percent Mortality: 100%
[2]
  Percent Growth Inhibition: 100%

## Cc1cc(C[N+]2([O-])CCC(C(O)(c3ccc(OC(F)(F)F)cc3)c3ccc(OC(F)(F)F)cc3)CC2)ccc1C1OCCO1 (stereo not drawn) [Compound 170]
[2]
  Percent Growth Inhibition: 100%
In vivo
  Percent Mortality: 100%
